According to patent publication US11298334B2, “Use of isothiocyanate compounds” (JC (WUXI) COMPANY, INC., priority 2016, dated 2022):

How the values were obtained:
[1] = tested on: volunteers with benign prostatic hyperplasia accompanied by elevated bilirubin; experiment: Auxiliary detection on total bilirubin and blood lipid, 24 weeks; format: in vivo, human; settings: 10, 20 or 30 mg 3 times a day oral
Experimental: Using the same method as described in Example 2, 24 volunteers with benign prostatic hyperplasia accompanied by elevated bilirubin were recruited. Using the same manner as described in Example 2, subjects meeting the entry criteria were randomly assigned into any of the following four groups at a ratio of 1:1:1:1: administration group (Group A): phenylethyl isothiocyanate 10 mg/time, 3 times a day; administration group (Group D): Phenylethyl isothiocyanate 20 mg/time, 3 times a day; administration group (Group B): phenylethyl isothiocyanate 30 mg/time, 3 times a day; placebo group (C group): phenylethyl isothiocyanate placebo 1 capsule/time, 3 times a day. Oral administration was continued for 24 weeks. The effectiveness and safety of the experiment were evaluated. Effectiveness: 1. benign prostatic hyperplasia: IPSS, QOL, prostate volume, maximal urinary flow rate, residual urine; 2. triglycerides; 3. lipoprotein cholesterol; 4. total bilirubin. Safety: occurrence, process, and solution of all adverse events during treatment.

[2] = tested on: volunteers with only hyperbilirubinemia; experiment: Auxiliary detection on total bilirubin, 6 weeks; format: in vivo, human; settings: 10, 20 or 30 mg 3 times a day oral
Experimental: The method was the same as described in Example 3, except that 8 volunteers with only hyperbilirubinemia were recruited in the medical research peers. Using the same manner as described in Example 3, the subjects were randomly assigned into any one of the following four groups at a ratio of 1:1:1:1: administration group (Group A): phenylethyl isothiocyanate 10 mg/time, 3 times a day; administration group (Group D): phenylethyl isothiocyanate 20 mg/time, 3 times a day; administration group (Group B): phenylethyl isothiocyanate 30 mg/time, 3 times a day; placebo group (C group): phenylethyl isothiocyanate placebo 1 capsule/time, 3 times a day. Oral administration was continued for 6 weeks.

SD rats = experiment: Hypolipidemic activity in rats: serum triglyceride after 6 months oral gavage; format: in vivo, rat; settings: for TG (serum triglyceride level): at terminal of administration, x ± SD, n = 14
Experimental: Reagent: phenylethyl isothiocyanate, synthesized by Wuxi Jiexi Pharmaceutical Technology Co., Ltd. The chemical construction was determined by NMR, UV, IR, MS, etc., and its content and purity were determined by HPLC (>99%); Fulinmen Brand corn oil, manufactured by Dongliang Industry (Zhangjiagang) Co., Ltd.
Animals: Clean SD rats, half male and half female, weighed 80-100 g, were provided by Shanghai Slac Laboratory Animal Co., Ltd. Free access to drinking water, ambient temperature of 20-25° C., relative humidity of 40%-70%.
Experimental methods: Male rats with 123-149 g of body weight were randomly divided into 4 groups according to their body weights. Female rats with 116-142 g of body weight were randomly divided into 4 groups according to body weights. In the control group and high dose group, there were 60 in each group. In the medium-dose and low-dose groups, there were 40 in each group, half male and half female. 0, 20, 60, 120 mg/kg of phenethyl isothiocyanate was administered by oral gavage, wherein the test drug was diluted with corn oil. The rats were administered continuously for 6 months, and administered 6 days a week, and administered at the same time every morning.
Observation items: blood biochemical examination.

[3] = tested on: patients with benign prostatic hyperplasia; experiment: Multicenter randomized double-blind placebo-controlled trial, 24 weeks: serum triglyceride, lipoprotein cholesterol, total bilirubin; format: in vivo, human; settings: for serum high-density lipoprotein, average change value compared with baseline / serum high-density lipoprotein, percentage of average change compared with baseline: Centers No. 11, 13 and 14
Experimental: A multicenter, randomized, double-blind, placebo parallel control design was used to preliminarily evaluate the safety and efficacy of phenylethyl isothiocyanate capsules on the treatment of BPH patients. Subjects meeting the entry criteria were randomly assigned to any of the following four groups at a ratio of 1:1:1:1: administration group (Group A): phenylethyl isothiocyanate 10 mg/time, 3 times a day; administration group (group D): phenylethyl isothiocyanate 20 mg/time, 3 times a day; administration group (group B): phenylethyl isothiocyanate 30 mg/time, 3 times a day; placebo group (group C): phenylethyl isothiocyanate placebo 1 capsule/time, 3 times a day. Oral administration was continued for 24 weeks. Men between the ages of 50 and 75, healthy, with moderate benign prostatic hyperplasia, no signs of prostate cancer. A total of 240 men participated in the six-month trial. Effectiveness: 1. benign prostatic hyperplasia: IPSS, QOL, prostate volume, the maximal urinary flow rate, residual urine; 2. triglycerides; 3. lipoprotein cholesterol; 4. total bilirubin. Safety: occurrence, process, and solution of all adverse events during treatment. Among the 14 centers in the clinical trial, the serum triglyceride levels and high-density lipoprotein and low-density lipoprotein levels in serum of the subjects were all detected in the center No. 11, center No. 13, and center No. 14.

[4] = tested on: volunteers with only hyperlipidemia; experiment: Auxiliary detection on blood lipids, 6 weeks; format: in vivo, human; settings: 10, 20 or 30 mg 3 times a day oral
Experimental: Using the same method as described in Example 3 except that 8 volunteers with only hyperlipidemia were recruited and using the same method as described in Example 3. The volunteers were randomly assigned into the following four groups at a ratio of 1:1:1:1: administration group (Group A): phenylethyl isothiocyanate 10 mg/time, 3 times a day; administration group (Group D): phenylethyl isothiocyanate 20 mg/time, 3 times a day; administration group (Group B): phenylethyl isothiocyanate 30 mg/time, 3 times a day; placebo group (Group C): phenylethyl isothiocyanate placebo 1 capsule/time, 3 times a day. Oral administration was continued for 6 weeks.

With S=C=NCCc1ccccc1 [phenylethyl isothiocyanate] the “high-density lipoprotein level, increase” value [1] was 10-20%, the “low density lipoprotein level, decrease” value [1] was 15-25% and the “total bilirubin level, decrease” value [1] was 15-25%. The “triglyceride level, decrease” value [1] was 15-25%, the “total bilirubin level, decrease” value [2] was 10-25% and the “decrease of triglycerides in serum compared with the 0 mg/kg group” value (shortened to “decrease of triglycerides in serum”) (SD rats; female rats, 20 mg/kg) was 25.5%. The “TG (serum triglyceride level)” value (SD rats; female rats, 20 mg/kg oral gavage) was 2.13 ± 0.82 mmol/L, the “decrease of triglycerides in serum” value (SD rats; female rats, 60 mg/kg) was 41.2% and the “TG (serum triglyceride level)” value (SD rats; female rats, 60 mg/kg oral gavage) was 1.68 ± 0.63 mmol/L. For the same compound, the “decrease of triglycerides in serum” value (SD rats; female rats, 120 mg/kg) was 52.8%, the “TG (serum triglyceride level)” value (SD rats; female rats, 120 mg/kg oral gavage) was 1.35 ± 0.72 mmol/L and the “decrease of triglycerides in serum” value (SD rats; male rats, 20 mg/kg) was 24.1%. For the same compound, the “TG (serum triglyceride level)” value (SD rats; male rats, 20 mg/kg oral gavage) was 1.73 ± 0.79 mmol/L, the “decrease of triglycerides in serum” value (SD rats; male rats, 60 mg/kg) was 44.3% and the “TG (serum triglyceride level)” value (SD rats; male rats, 60 mg/kg oral gavage) was 1.27 ± 0.38 mmol/L. For the same compound, the “decrease of triglycerides in serum” value (SD rats; male rats, 120 mg/kg) was 56.1%, the “TG (serum triglyceride level)” value (SD rats; male rats, 120 mg/kg oral gavage) was 1.00 ± 0.22 mmol/L and the “triglyceride, percentage of average change compared with baseline” value ([3]; Group A, 30 mg (10 mg 3 times a day) oral, 24 weeks) was −6.54%. The “total bilirubin, percentage of average change compared with the baseline” value ([3]; Group A, 30 mg, 4 weeks) was 2.23%, the “total bilirubin, percentage of average change compared with the baseline” value ([3]; Group A, 30 mg, 8 weeks) was −3.15% and the “total bilirubin, percentage of average change compared with the baseline” value ([3]; Group A, 30 mg, 16 weeks) was −4.46%. The “low-density lipoprotein, average change value compared with baseline” value ([3]; Group A, 30 mg, 24 weeks) was 0.0062, the “low-density lipoprotein, percentage of average change compared with baseline” value ([3]; Group A, 30 mg, 24 weeks) was −0.88% and the “total bilirubin levels, average decrease compared with the baseline” value (“total bilirubin levels, average decrease” for short) ([3]; Group A, 30 mg, 24 weeks) was 8.91%. The “total bilirubin, percentage of average change compared with the baseline” value ([3]; Group A, 30 mg, 24 weeks) was −8.91%, the “triglyceride levels, average decrease compared with baseline” value (shortened to “triglyceride levels, average decrease”) ([3]; Group A, 30 mg, 24 weeks) was 6.54% and the “serum high-density lipoprotein, average change value compared with baseline” value ([3]; Group A, 30 mg, 24 weeks) was 0.0063. For the same compound, the “serum high-density lipoprotein, percentage of average change compared with baseline” value ([3]; Group A, 30 mg, 24 weeks) was 1.45%, the “triglyceride, percentage of average change compared with baseline” value ([3]; Group B, 90 mg (30 mg 3 times a day) oral, 24 weeks) was −8.59% and the “total bilirubin, percentage of average change compared with the baseline” value ([3]; Group B, 90 mg, 4 weeks) was 2.18%. For the same compound, the “total bilirubin, percentage of average change compared with the baseline” value ([3]; Group B, 90 mg, 8 weeks) was −0.45%, the “total bilirubin, percentage of average change compared with the baseline” value ([3]; Group B, 90 mg, 16 weeks) was −8.28% and the “low-density lipoprotein, average change value compared with baseline” value ([3]; Group B, 90 mg, 24 weeks) was 0.1925. The “low-density lipoprotein, percentage of average change compared with baseline” value ([3]; Group B, 90 mg, 24 weeks) was 6.92%, the “total bilirubin levels, average decrease” value ([3]; Group B, 90 mg, 24 weeks) was 6.10% and the “total bilirubin, percentage of average change compared with the baseline” value ([3]; Group B, 90 mg, 24 weeks) was −6.10%. The “triglyceride levels, average decrease” value ([3]; Group B, 90 mg, 24 weeks) was 8.59%, the “serum high-density lipoprotein, average change value compared with baseline” value ([3]; Group B, 90 mg, 24 weeks) was 0.0938 and the “serum high-density lipoprotein, percentage of average change compared with baseline” value ([3]; Group B, 90 mg, 24 weeks) was 7.77%. The “triglyceride, percentage of average change compared with baseline” value ([3]; Group D, 60 mg (20 mg 3 times a day) oral, 24 weeks) was −8.58%, the “total bilirubin, percentage of average change compared with the baseline” value ([3]; Group D, 60 mg, 4 weeks) was 5.21% and the “total bilirubin, percentage of average change compared with the baseline” value ([3]; Group D, 60 mg, 8 weeks) was 3.34%. The “total bilirubin, percentage of average change compared with the baseline” value ([3]; Group D, 60 mg, 16 weeks) was −1.82%, the “low-density lipoprotein, average change value compared with baseline” value ([3]; Group D, 60 mg, 24 weeks) was −0.0425 and the “low-density lipoprotein, percentage of average change compared with baseline” value ([3]; Group D, 60 mg, 24 weeks) was 0.05%. For the same compound, the “total bilirubin levels, average decrease” value ([3]; Group D, 60 mg, 24 weeks) was 8.55%, the “total bilirubin, percentage of average change compared with the baseline” value ([3]; Group D, 60 mg, 24 weeks) was −8.55% and the “triglyceride levels, average decrease” value ([3]; Group D, 60 mg, 24 weeks) was 8.58%. The “serum high-density lipoprotein, average change value compared with baseline” value ([3]; Group D, 60 mg, 24 weeks) was 0.1013, the “serum high-density lipoprotein, percentage of average change compared with baseline” value ([3]; Group D, 60 mg, 24 weeks) was 9.15% and the “high-density lipoprotein level, increase” value [4] was 10-20%. The “low density lipoprotein level, decrease” value [4] was 10-25% and the “triglyceride level, decrease” value [4] was 10-25%.
